From ChEMBL document CHEMBL1268962 (Bioorg Med Chem Lett, 2010)
pIC50: −log10 of the molar value.

Columns and labels:
Type in all cases: functional, cell-based
HCT-116 [1] = assay: Cytotoxicity against human HCT116 cells after 72 hrs; conditions: HCT-116, 72 h
HCT-116 [2] = assay: Cytotoxicity against vinblastine-resistant human HCT116 cells after 72 hrs; conditions: HCT-116, 72 h
L1210 = assay: Cytotoxicity against mouse L1210 cells after 72 hrs; conditions: L1210, 72 h

Structure (SMILES) | pIC50 (HCT-116 [1]) | pIC50 (HCT-116 [2]) | pIC50 (L1210)
CCC1=C[C@@H]2CN(CCc3c([nH]c4ccccc34)[C@@](C(=O)OC)(c3cc4c(cc3OC)N(C)C3[C@]45CCN4CC=C[C@@](CC)([C@@H](OC(C)=O)[C@]3(O)C(=O)OC)[C@H]45)C2)C1 (some centres undefined) | 7.12 | 6.22 | 7.19
CCOC(=O)[C@]1(c2cc3c(cc2OC)N(C)C2[C@]34CCN3CC=C[C@@](CC)([C@@H](OC(C)=O)[C@]2(O)C(=O)OC)[C@H]34)C[C@@H]2C=C(CC)CN(CCc3c1[nH]c1ccccc31)C2 (some centres undefined) | 6.19 | 5.39 | 6.21
CCC1=C[C@@H]2CN(CCc3c([nH]c4ccccc34)[C@@](C#N)(c3cc4c(cc3OC)N(C)C3[C@]45CCN4CC=C[C@@](CC)([C@@H](OC(C)=O)[C@]3(O)C(=O)OC)[C@H]45)C2)C1 (some centres undefined) | 5.21 | 5.17 | 5.19
CCC1=C[C@@H]2CN(CCc3c([nH]c4ccccc34)[C@@](C(N)=O)(c3cc4c(cc3OC)N(C)C3[C@]45CCN4CC=C[C@@](CC)([C@@H](OC(C)=O)[C@]3(O)C(=O)OC)[C@H]45)C2)C1 (some centres undefined) | < 5.00 | < 5.00 | < 5.00
CCC1=C[C@@H]2CN(CCc3c([nH]c4ccccc34)[C@@](C=O)(c3cc4c(cc3OC)N(C)C3[C@]45CCN4CC=C[C@@](CC)([C@@H](OC(C)=O)[C@]3(O)C(=O)OC)[C@H]45)C2)C1 (some centres undefined) | 5.15 | < 5.00 | 5.20
CCOC(=O)[C@]1(c2cc3c(cc2OC)N(C)C2[C@]34CCN3CC=C[C@@](CC)([C@@H](OC(C)=O)[C@]2(O)C(=O)OC)[C@H]34)C[C@H]2CN(CCc3c1[nH]c1ccccc31)C[C@](O)(CC)C2 (some centres undefined) | 7.15 | 6.08 | 7.22
CC[C@]1(O)C[C@@H]2CN(CCc3c([nH]c4ccccc34)[C@@](C#N)(c3cc4c(cc3OC)N(C)C3[C@]45CCN4CC=C[C@@](CC)([C@@H](OC(C)=O)[C@]3(O)C(=O)OC)[C@H]45)C2)C1 (some centres undefined) | 6.17 | 5.13 | 6.20
CC[C@]1(O)C[C@@H]2CN(CCc3c([nH]c4ccccc34)[C@@](C(N)=O)(c3cc4c(cc3OC)N(C)C3[C@]45CCN4CC=C[C@@](CC)([C@@H](OC(C)=O)[C@]3(O)C(=O)OC)[C@H]45)C2)C1 (some centres undefined) | < 5.00 | < 5.00 | < 5.00
CC[C@]1(O)C[C@@H]2CN(CCc3c([nH]c4ccccc34)[C@@](CCO)(c3cc4c(cc3OC)N(C)C3[C@]45CCN4CC=C[C@@](CC)([C@@H](OC(C)=O)[C@]3(O)C(=O)OC)[C@H]45)C2)C1 (some centres undefined) | 5.24 | < 5.00 | 5.19
CC[C@]1(O)C[C@@H]2CN(CCc3c([nH]c4ccccc34)[C@@](C(=O)OC)(c3cc4c(cc3OC)N(C)[C@H]3[C@@](O)(C(=O)OC)[C@H](OC(C)=O)[C@]5(CC)C=CCN6CC[C@]43[C@@H]65)C2)C1 [VINBLASTINE] | – | 6.22 | 8.22
